Measurements taken from article PMC8523698, “Preclinical characterization of an intravenous coronavirus 3CL protease inhibitor for the potential treatment of COVID19” (Nature Communications, 2021).

System: SARS-CoV-2 Belgium/GHB-03021/2020 strain
Assay: microbe, parasite or virus in culture
Assay type: cell-based
Set-up: Percent Effect: scale not given: direction of the effect not stated beside the values

COc1cccc2[nH]c(C(=O)N[C@@H](CC(C)C)C(=O)N[C@@H](C[C@@H]3CCNC3=O)C(=O)CO)cc12 [PF-00835231-00]
Percent Effect: 0.59%
